Here are results for four compounds from patent publication US4268630A, “Microbiological production of ketones from C3 -C6 alkanes” (priority 1979, dated 1981).

Structures are written as SMILES.

Assay [1] concerns Methylosinus trichosporium OB3b (NRRL B-11,196). In words: Oxidation of sec-alcohols to ketones by resting cell suspension. The format is cell-based. On the procedure:
(§1) The pH of the nutrient medium was adjusted to 7.0 by the addition of acid or base and 50 ml. samples of the nutrient medium were charged into a plurality of 300 ml. shaker flasks. The shaker flasks were inoculated with an inoculating loop of cells from an agar plate containing homogeneous colonies of the microorganisms on the plate (the purity of the isolates was confirmed by microscopic examination). The isolates had been maintained on methanol (0.4% V/V) agar plates or on agar plates under an atmosphere of methane and air having a 1:1 V/V gas ratio which had been transferred every two weeks. For growth on methanol, the medium was supplemented with 0.4% methanol. For growth on methane, the gaseous phase of the inoculated flasks was replaced with a gas mixture comprised on methane and air having a ratio of 1:1 on a V/V basis. The inoculated flasks were sealed air-tight and were incubated on a rotary shaker of orbital radius 2.5 cm. at 250 rpm and at 30° C. for two days until turbidity in the medium had developed. The cells were harvested by centrifugation at 10,000×g. at 4° C. for 30 minutes. The cell pellet was washed twice with a 0.05 M phosphate buffer at a pH of 7.0 (containing 0.02 M MgCl2). The washed cells were then suspended in a 0.05 M phosphate buffer at pH 7.0.
(§2) A 0.5 ml. sample of each washed cell suspension (2 mg. cells) was put into 10 ml. vials at 4° C. which were sealed with a rubber cap. The gaseous phase of the vials was removed with vacuum and then was replaced with a gas mixture of the substrate reactant (i.e., alkane or secondary alcohol) and oxygen at a 1:1 V/V ratio. (In the case of a liquid substrate, i.e., secondary alcohol, 10 μl of the substrate was put in the 10 ml. vials). […] Samples of product (1-3 μl) were withdrawn periodically with a microsyringe and the products were analyzed by gas chromatography (ionization flame detector column).
(§3) The procedure in Example 1 was repeated wherein a plurality of the methane-utilizing methylotrophic microorganisms were each grown aerobically in a nutrient medium containing methane as the alcohol dehydrogenase enzyme inducer and as the major carbon and energy source for growth. The cells were harvested and washed as described in Example 1. The resting microbial cells of the induced methane-grown methane-utilizing methylotrophic microorganisms were then contacted with C3 -C6 secondary alcohols in a buffered solution by the procedure of Example 1.
(§4) In this example, the procedure in Example 1 was repeated except that a plurality of methane-utilizing methylotrophic microorganisms were each aerobically grown in a methanol-containing nutrient medium instead of a methane-containing medium. The nutrients in the medium were the same as indicated in Example 1 except that 0.4% V/V methanol was used as the alcohol dehydrogenase inducer and major source of carbon and energy for growth. Following growth, the cells were harvested and washed as described in Example 1. The resting cells of the induced methanol-grown methylotrophic microorganisms were then contacted with secondary alcohols in a buffered solution by the procedure described in Example 1.
(§5) The procedure in Example 1 was repeated except that the methylotrophic microorganisms were each aerobically grown in an alcohol dehydrogenase-inducing growth medium containing methylamine or methyl formate as the alcohol dehydrogenase enzyme inducer and growth substrate instead of methane. The nutrients in the medium were the same as indicated in Example 1 except that 0.4% V/V of the alcohol dehydrogenase-inducer growth substrate was used as the major carbon and energy source. The cells were harvested and washed as described in Example 1. The resting microbial cells were then contacted with C3 -C6 secondary alcohols in a buffered solution by the conversion procedure of Example 1.

In assay [2] the test system is Methylobacterium organophilum XX (ATCC 27886). The description is as above. Type of assay: cell-based. On the procedure:
as §1, §2, §3, §4, §5

Assay [3] has as its system Methylomonas albus BG8 (NRRL B-11,200). Described as above. The format is cell-based. On the procedure:
as §1, §2, §3, §4

The test system of assay [4] is Methylosinus sporium 5 (NRRL B-11,197). Described as above. The format is cell-based. On the procedure: as §1, §2, §3, §4
The test system of assay [5] is Methanomonas methylovora ATCC 21852. The description is as above. Type of assay: cell-based. On the procedure:
as §1, §2
(§6) The procedure in Example 1 was repeated except that a plurality of methanol-utilizing methylotrophic microorganisms were each aerobically grown in a methanol-containing nutrient medium instead of a methane-containing medium. The nutrients in the medium were the same as indicated in Example 1 except that 0.4% V/V methanol was used as the alcohol dehydrogenase inducer and as the major carbon and energy source for growth. The cells were harvested and washed as described in Example 1. The resting microbial cells of the induced methanol-grown methanol-utilizing methylotrophic microorganisms were then contacted with C3 -C6 secondary alcohols in a buffered solution by the procedure of Example 1.
as §5

The test system of assay [6] is Pseudomonas sp. ATCC 21438. The description is as above. The format is cell-based. On the procedure:
as §1, §2, §6, §5

Assay [7] relates to cell extracts of Torulopsis sp. strain A1 NRRL Y-11,419. In words: NAD+-dependent oxidation of secondary alcohols by cell extracts of yeasts. The settings on record: for Conversion Rate, secondary alcohol to methylketone: cell extracts, grown on methanol, NAD+, gas chromatography. The format is biochemical.

With `CCC(C)O` (stereo not shown) [2-Butanol, 2-butanol], the “Conversion Rates, sec-alcohol to methyl ketone” value (from here on “Conversion Rates, sec-alcohol”) in assay [1] (cells grown on methanol) came to 4.1 μmoles/hr/mg protein; in assay [1] (methyl formate-grown) it was 4.5 μmoles/hr/mg protein; in assay [1] (resting cells grown on methane) it was 3.7 μmoles/hr/mg protein; in assay [2] (cells grown on methanol), 2.8 μmoles/hr/mg protein; in assay [2] (methyl formate-grown), 3.5 μmoles/hr/mg protein; in assay [2] (resting cells grown on methane) it was 2.5 μmoles/hr/mg protein. The “Conversion Rates, sec-alcohol” value amounted to 3.0 μmoles/hr/mg protein in assay [3] (cells grown on methanol); 3.5 μmoles/hr/mg protein in assay [3] (resting cells grown on methane); 3.5 μmoles/hr/mg protein in assay [4] (cells grown on methanol); 3.0 μmoles/hr/mg protein in assay [4] (resting cells grown on methane); 2.5 μmoles/hr/mg protein in assay [5] (methanol-grown, obligate); 2.1 μmoles/hr/mg protein in assay [5] (methyl formate-grown). The “Conversion Rates, sec-alcohol” value in assay [5] (methylamine-grown) is given as 3.2 μmoles/hr/mg protein; in assay [6] (methanol-grown, facultative) it was 3.2 μmoles/hr/mg protein; in assay [6] (methyl formate-grown), 3.2 μmoles/hr/mg protein; in assay [6] (methylamine-grown), 2.1 μmoles/hr/mg protein. The “Conversion Rate, secondary alcohol to methylketone” value (from here on “Conversion Rate, secondary alcohol”) in assay [7] was 4.9 μmoles/hr/mg Protein. In addition, the specific activities in assay [7] (spectrophotometric, 2-butanol as substrate) is reported as 62 nmoles NAD^+ reduced per min. per mg. protein.

As to `CCCCC(C)O` (stereo not shown) [2-Hexanol, 2-hexanol], the “Conversion Rates, sec-alcohol” value in assay [1] (cells grown on methanol) was 0.9 μmoles/hr/mg protein; in assay [1] (methyl formate-grown), 0.72 μmoles/hr/mg protein; in assay [1] (resting cells grown on methane), 0.07 μmoles/hr/mg protein; in assay [2] (cells grown on methanol), 1.1 μmoles/hr/mg protein; in assay [2] (methyl formate-grown), 0.70 μmoles/hr/mg protein; in assay [2] (resting cells grown on methane) it was 0.12 μmoles/hr/mg protein. The “Conversion Rates, sec-alcohol” value in assay [5] (methanol-grown, obligate) amounted to 1.0 μmoles/hr/mg protein; in assay [5] (methyl formate-grown), 0.60 μmoles/hr/mg protein; in assay [5] (methylamine-grown), 0.09 μmoles/hr/mg protein; in assay [6] (methanol-grown, facultative), 0.7 μmoles/hr/mg protein; in assay [6] (methyl formate-grown), 0.80 μmoles/hr/mg protein; in assay [6] (methylamine-grown), 0.07 μmoles/hr/mg protein. The “Conversion Rate, secondary alcohol” value in assay [7] is listed as 0.21 μmoles/hr/mg Protein.

On to `CCCC(C)O` (stereo not shown) [2-Pentanol, 2-pentanol], for which the “Conversion Rates, sec-alcohol” value in assay [1] (cells grown on methanol) was determined as 2.9 μmoles/hr/mg protein; in assay [1] (methyl formate-grown) it was 1.5 μmoles/hr/mg protein; in assay [1] (resting cells grown on methane), 2.7 μmoles/hr/mg protein; in assay [2] (cells grown on methanol), 0.9 μmoles/hr/mg protein; in assay [2] (methyl formate-grown), 1.0 μmoles/hr/mg protein; in assay [2] (resting cells grown on methane), 0.82 μmoles/hr/mg protein. Further, the “Conversion Rates, sec-alcohol” value is listed as 2.1 μmoles/hr/mg protein in assay [5] (methanol-grown, obligate); 1.5 μmoles/hr/mg protein in assay [5] (methyl formate-grown); 1.0 μmoles/hr/mg protein in assay [5] (methylamine-grown); 2.7 μmoles/hr/mg protein in assay [6] (methanol-grown, facultative); 2.0 μmoles/hr/mg protein in assay [6] (methyl formate-grown); 0.82 μmoles/hr/mg protein in assay [6] (methylamine-grown). Also, the “Conversion Rate, secondary alcohol” value in assay [7] came to 1.0 μmoles/hr/mg Protein.

`CC(C)O` [2-Propanol, 2-propanol]: the “Conversion Rates, sec-alcohol” value is on record as 0.30 μmoles/hr/mg protein in assay [1] (cells grown on methanol); 0.95 μmoles/hr/mg protein in assay [1] (methyl formate-grown); 0.25 μmoles/hr/mg protein in assay [1] (resting cells grown on methane); 0.70 μmoles/hr/mg protein in assay [2] (cells grown on methanol); 0.48 μmoles/hr/mg protein in assay [2] (methyl formate-grown); 0.5 μmoles/hr/mg protein in assay [2] (resting cells grown on methane). Besides, the “Conversion Rates, sec-alcohol” value is on record as 1.5 μmoles/hr/mg protein in assay [3] (cells grown on methanol); 1.3 μmoles/hr/mg protein in assay [3] (resting cells grown on methane); 0.45 μmoles/hr/mg protein in assay [4] (cells grown on methanol); 0.30 μmoles/hr/mg protein in assay [4] (resting cells grown on methane); 0.28 μmoles/hr/mg protein in assay [5] (methanol-grown, obligate); 0.62 μmoles/hr/mg protein in assay [5] (methyl formate-grown). Besides, the “Conversion Rates, sec-alcohol” value in assay [5] (methylamine-grown) was 0.82 μmoles/hr/mg protein; in assay [6] (methanol-grown, facultative) it was 0.45 μmoles/hr/mg protein; in assay [6] (methyl formate-grown) it was 0.52 μmoles/hr/mg protein; in assay [6] (methylamine-grown), 1.0 μmoles/hr/mg protein. The “Conversion Rate, secondary alcohol” value in assay [7] is on record as 4.5 μmoles/hr/mg Protein.
